No end group written: not given here.
Key:
NSC-34 cells [1] = experiment: BrdU ELISA (proliferation) in NSC-34 cells; type: cell-based, Mouse; settings: DRP 0.01-3 μM, 24 h; compared to DMSO-treated controls
Protocol: BrdU ELISA: The BrdU ELISA is an ELISA detecting cell proliferation activity. BrdU is a pyrimidine analog that, when inside the cell, can be incorporated instead of thymidine into newly synthesized strands of DNA. Just as is indicated by thymidine incorporation into DNA, BrdU incorporation into cell DNA indicates DNA synthesis activity, which is required for cell proliferation. In the BrdU ELISA, cells are treated with test compounds as well as BrdU reagent, and then incubated for 24 hours before testing. During testing, an anti-BrdU antibody detects the incorporation of BrdU into cell DNA that occurred over the 24-hour period, as a surrogate for cell proliferation activity. This anti-BrdU antibody is then labelled with a secondary antibody tagged with a colored substrate, which can be quantified spectrophotometrically. Greater absorbance readings correspond to more cell proliferation activity.
Cells were plated in culture medium in 2 96-well plates at a density of 3.7×10^4 cells per well, and incubated overnight at 37° C., 5% CO2.
The following conditions were plated in triplicate.
Plates were incubated for 24 h at 37° C., 5% CO2. Cells were tested and data were analyzed using the procedure detailed in BrdU ELISA kit instructions.
Cells were plated in culture medium in 2 96-well plates at a density of 5×10^4 cells per well, and incubated overnight at 37° C., 5% CO2. […] 10 μL of each concentration would be added to 100 μL base media in plate to achieve final concentrations of 3, 1, 0.3, 0.1, 0.03, and 0.01 μM DRP.
The following conditions were plated in triplicate. Samples were surrounded by border wells on the outside of the plate filled with sterile Phosphate-buffered saline to prevent evaporation of volume in experimental wells during incubation; • Culture medium only • Background (Cells only in culture medium, without BrdU reagent) • Untreated (Cells only in culture medium, with BrdU reagent) • DMSO Controls (Cells treated with BrdU reagent and the amount of DMSO that DRP-treated cells were exposed to at each concentration) • i. The DMSO controls tested were as follows, corresponding to DRP doses starting at the highest (3 μM to the lowest 0.01 μM), and were diluted in culture medium: • 1. 0.03% DMSO • 2. 0.01% DMSO • 3. 0.003% DMSO • 4. 0.001% DMSO • 5. 0.0003% DMSO • 6.

NSC-34 cells [2] = experiment: Caspase-3 assay (apoptotic activity) in NSC-34 cells; type: cell-based; settings: DRP 0.01-3 μM, 24 h; compared to DMSO-treated controls
Description: Caspase-3/CPP32 Assay: The caspase-3 assay is a fluorometric assay that measures apoptotic cell death. Apoptosis is a form of “programmed” cell death, in which a certain family of proteins inside the cell triggers a cascade of chemical reactions that result in the cell killing itself. One family of proteins involved in this process is the caspase protein family. Of the caspase proteins, caspase-2, 8, 9, and 10 are known as “initiators,” those that trigger the death cascade, and caspase-3, 6, and 7 are known as “executioners,” which carry out the actual killing of the cell. In a caspase-3 assay, cells treated with test compounds are lysed, and a substrate known as DEVD-AFC is added to the lysate. If active caspase-3 enzyme is present in the lysate, it will cleave AFC from the DEVD-AFC substrate, resulting in a fluorescent signal that can be quantified using a fluorescence microtiter plate reader. Thus, the apoptotic activity of cells treated with test compounds can be quantified. Greater fluorescence readings correspond to more apoptotic cell death.
Cells were plated in culture medium in 2 96-well plates at a density of 3.7×10^4 cells per well, and incubated overnight at 37° C., 5% CO2. The following day, immediately prior to addition of test compounds, existing culture medium was removed and replaced with staggered volumes of culture medium as in Example 1. A 10 mM stock of MS023 was thawed to room temperature and diluted as in Example 1. A 10 mM stock of GR15 (SEQ ID NO: 1) and a 10 mM stock of PR15 (SEQ ID NO: 2) were equilibrated to room temperature and diluted in warm culture medium to achieve a final concentration of 300 nM in wells.
The following conditions were plated in triplicate. Samples were surrounded by border wells on the outside of the plate filled with sterile Phosphate-buffered saline to prevent evaporation of volume in experimental wells during incubation; • Background (Culture medium only) • Untreated/“Cells Only” (Cells in culture medium) • DMSO Control (Cells treated only with the amount of DMSO that GR- and PR-treated cells were exposed to) • GR Only (Cells treated only with 300 nM GR15) (SEQ ID NO: 1) • Cells treated with […] GR15 (SEQ ID NO: 1) and one of the following doses of MS023: 60 μM, 30 μM, 10 μM, 3 μM, 1 μM. • PR Only (Cells treated only with 300 nM PR15) (SEQ ID NO: 2) • Cells treated with 300 nM PR15 (SEQ ID NO: 2) and one of the following doses of MS023: 60 μM, 30 μM, 10 μM, 3 μM, 1 μM. • Cells treated with only one of the following doses of MS023: 60 μM, 30 μM, 10 μM, 3 μM, 1 μM. • Positive controls (Cells treated with either 5 or 16 μM PAC-1 Caspase-3 activator)
Plates were incubated for 24 h at 37° C., 5% CO2. Cells were tested and data were analyzed using the procedure detailed in Caspase-3 assay kit instructions.
Cells were plated in culture medium in 2 96-well plates at a density of 3.7×10^4 cells per well, and incubated overnight at 37° C., 5% CO2. The following day, immediately prior to addition of test compounds, existing culture medium was removed and replaced with staggered volumes of culture medium as in Example 1. A 10 mM stock of MS023 was thawed to room temperature and diluted in warm culture medium to achieve final concentrations of 3, 1, 0.3, 0.1, 0.03, and 0.01 μM in plate. A 10 mM stock of GR15 (SEQ ID NO: 1) and a 10 mM stock of PR15 (SEQ ID NO: 2) were equilibrated to room temperature and diluted in warm culture medium to achieve a final concentration of 3 μM in wells.
The following conditions were plated in triplicate. […]

GPGPGPGPGPGPGPGPGPGPGPGPGPGPGP [GP15]
effect of DRP on proliferation activity (NSC-34 cells [1]): did not significantly impact proliferation activity | DRP-induced apoptotic activity (NSC-34 cells [2]): producing less robust levels of apoptotic activity

PAPAPAPAPAPAPAPAPAPAPAPAPAPAPA [PA15]
effect of DRP on proliferation activity (NSC-34 cells [1]): did not significantly impact proliferation activity | DRP-induced apoptotic activity (NSC-34 cells [2]): producing less robust levels of apoptotic activity
